Assay results reported in EP4813463A2, “TYK2 INHIBITORS AND COMPOSITIONS AND METHODS THEREOF” (Lynk Pharmaceuticals Co. Ltd., priority 2023, dated 2024).
pIC50: −log10 of the molar value. Where two headings read alike, the source gives them in different places.

Target: T1, TYK2-JH2 domain (Homo sapiens, UniProt P29597)
T1 construct: JAK1-JH2 domain or TYK2-JH2 domain enzyme in assay buffer
Test: Binding activity test for JH2 domain of TYK2 (Tb-antibody/tracer FRET)
Experimental: Binding Activity test for JH2 domain of JAK1 and TYK2 […] Add 8μL/well in echo source plate, echo will add 75nL/well with 3-fold serial dilution for 11 points in assay plate. 75nL DMSO for high control and low control. […] For low control, add 5μL/well assay buffer. And then spin down at 1000rpm and centrifuge for 30 seconds. After enzyme system prepared, add 5μL of Tb-antibody solution into each well of assay plate. Spin down at 1000 rpm and centrifuge for 30sec. After Tb-antibody added, also add 5μL of tracer into the assay plate. Spin down at 1000rpm and centrifuge for 30sec. Incubate for […] at 25°C firstly and then continue to incubate the plate at 4°C overnight. Read by envision in FRET mode. The Luminescence value was recorded by a multi-label reader Envision (PerkinElmer). […] Table 2. IC50 on JH2 domain activity (nM)

[1] = JH2 domain enzyme; 60 min at 25°C, then 4°C overnight; read-out: TYK2 JH2 Binding IC50

T1 sequence (P29597 589-875 limits assumed): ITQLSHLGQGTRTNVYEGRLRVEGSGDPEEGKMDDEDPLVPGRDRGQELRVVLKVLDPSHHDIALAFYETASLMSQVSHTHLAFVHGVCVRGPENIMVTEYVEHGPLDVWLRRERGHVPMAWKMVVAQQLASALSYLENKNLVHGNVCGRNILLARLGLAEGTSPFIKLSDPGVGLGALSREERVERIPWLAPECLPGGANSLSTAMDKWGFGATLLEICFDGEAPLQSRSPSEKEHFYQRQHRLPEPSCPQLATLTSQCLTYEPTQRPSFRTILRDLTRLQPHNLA

Compound | pIC50 [1] | pIC50 (read-out: TYK2 JH2 Binding IC50; JH2 domain enzyme; 60 min at 25°C, then 4°C overnight)
COC(=O)c1nnc(NC(=O)C2CC2)cc1Nc1nn(C)c2ccc(C(OC)C(F)(F)F)c(OC)c12 (centres unmarked) [Example 101, Methyl 6-(cyclopropanecarboxamido)-4-((4-methoxy-1-methyl-5-(2,2,2-trifluoro-1-methoxyethyl)-1H-indazol-3-yl)amino)pyridazine-3-carboxylate] | < 6.53 | –
CCC(O)c1cnc(NC(=O)C2CC2)cc1Nc1nn(C)c2ccc([C@H](OC)C(F)(F)F)c(OC)c12 (stereo partly drawn) [Example 143, N-(5-(1-hydroxypropyl)-4-((4-methoxy-1-methyl-5-((S)-2,2,2-trifluoro-1-methoxyethyl)-1H-indazol-3-yl)amino)pyridin-2-yl)cyclopropanecarboxamide] | 7.46 | –
[2H]C([2H])([2H])OC(c1ccc2c(c(Nc3cc(NC(=O)C4CC4)ncc3C(=O)OC)nn2CCOC)c1OC)C(F)(F)F (single isomer, unassigned) [Example 157B, Methyl (R*)-6-(cyclopropanecarboxamido)-4-((4-methoxy-1-(2-methoxyethyl)-5-(2,2,2-trifluoro-1-methoxyethyl)-1H-indazol-3-yl)amino)nicotinate] | 8.85 | –
CCOC(c1ccc2c(c(Nc3cc(NC(=O)C4CC4)ncc3C(=O)OC)nn2C)c1OC)C(F)(F)F (racemic) [Example 106, Methyl 6-(cyclopropanecarboxamido)-4-((5-(1-ethoxy-2,2,2-trifluoroethyl)-4-methoxy-1-methyl-1H-indazol-3-yl)amino)nicotinate] | 8.88 | –
[2H]C([2H])([2H])O[C@H](c1ccc2c(c(Nc3cc(NC(=O)C4CC4)ncc3C(=O)OC)nn2C([2H])([2H])[2H])c1OC)C(F)(F)F [Example 53A, Methyl (R)-6-(cyclopropanecarboxamido)-4-((4-methoxy-1-(methyl-d3)-5-(2,2,2-trifluoro-1-(methoxy-d3)ethyl)-1H-indazol-3-yl)amino)nicotinate] | 9.20 | –
COC(=O)c1cnc(NC(=O)C2CC2)cc1Nc1nn(C)c2ccc(C(OC)C(F)(F)F)c(O)c12 (centres unmarked) [Example 149, Methyl 6-(cyclopropanecarboxamido)-4-((4-hydroxy-1-methyl-5-(2,2,2-trifluoro-1-methoxyethyl)-1H-indazol-3-yl)amino)nicotinate] | 9.13 | –
COC(=O)c1cnc(NC(=O)C2CC2)cc1Nc1c2c(OC)c(C(C)C(F)(F)F)ccc2nn1C (centres unmarked) [Example 124, Methyl 6-(cyclopropanecarboxamido)-4-((4-methoxy-2-methyl-5-(1,1,1-trifluoropropan-2-yl)-2H-indazol-3-yl)amino)nicotinate] | 7.04 | –
COC(=O)c1cnc(NC(=O)C2CC2)cc1Nc1nn(C)c2ccc(C#N)c(OC)c12 [Example 126, Methyl 4-((5-cyano-4-methoxy-1-methyl-1H-indazol-3-yl)amino)-6-(cyclopropanecarboxamido)nicotinate] | 8.75 | –
CCC(OC)c1ccc2c(c(Nc3cc(NC(=O)C4CC4)ncc3C(=O)OC)nn2C)c1OC (centres unmarked) [Example 121, Methyl 6-(cyclopropanecarboxamido)-4-((4-methoxy-5-(1-methoxypropyl)-1-methyl-1H-indazol-3-yl)amino)nicotinate] | 9.39 | –
[2H]C([2H])([2H])NC(=O)c1cnc(NC(=O)C2CC2)cc1Nc1cnn2ccc(C)c(NC)c12 [Example 97, 6-(Cyclopropanecarbonylamino)-4-[[5-methyl-4-(methylamino)pyrazolo [1,5-a]pyridin-3-yl]amino]-N-(trideuteriomethyl)pyridine-3-carboxamide] | 8.63 | –
CCC(F)c1cnc(NC(=O)C2CC2)cc1Nc1nn(C)c2ccc([C@H](OC)C(F)(F)F)c(OC)c12 (stereo partly drawn) [Example 144, N-(5-(1-fluoropropyl)-4-((4-methoxy-1-methyl-5-((S)-2,2,2-trifluoro-1-methoxyethyl)-1H-indazol-3-yl)amino)pyridin-2-yl)cyclopropanecarboxamide] | 7.38 | –
COC(=O)c1c(Nc2nn(C)c3ccc(C(OC)C(F)(F)F)c(OC)c23)cc(NC(=O)C2CC2)nc1F (single isomer, unassigned) [Example 98B, Methyl (S*)-6-(cyclopropanecarboxamido)-2-fluoro-4-((4-methoxy-1-methyl-5-(2,2,2-trifluoro-1-methoxyethyl)-1H-indazol-3-yl)amino)nicotinate] | 8.41 | –
COC(=O)c1cnc(NC(=O)C2CC2)cc1Nc1nn(C)c2ccc(C(OC)C(C)(F)F)c(OC)c12 (single isomer, unassigned) [Example 115B, Methyl (R*)-6-(cyclopropanecarboxamido)-4-((5-(2,2-difluoro-1-methoxypropyl)-4-methoxy-1-methyl-1H-indazol-3-yl)amino)nicotinate] | 8.92 | –
COC(=O)c1cnc(NC(=O)C2CC2)cc1Nc1ncn2ccc(C)c(OC)c12 [Example 103, Methyl 6-(cyclopropanecarboxamido)-4-((8-methoxy-7-methylimidazo[1,5-a]pyridin-1-yl)amino)nicotinate] | 8.23 | –
COC(=O)c1cnc(NC(=O)C2CC2)cc1Nc1nn(C)c2cnc(C(OC)C(F)(F)F)c(OC)c12 (centres unmarked) [Example 138, Methyl 6-(cyclopropanecarbonylamino)-4-[[4-methoxy-1-methyl-5-(2,2,2-trifluoro-1-methoxy-ethyl)pyrazolo[3,4-c]pyridin-3-yl]amino]pyridine-3-carboxylate] | 8.91 | –
COC(=O)c1cnc(NC(=O)C2CC2)cc1Nc1nn(CC#N)c2ccc(C(OC)C(F)(F)F)c(OC)c12 (centres unmarked) [Example 134, Methyl 4-((1-(cyanomethyl)-4-methoxy-5-(2,2,2-trifluoro-1-methoxyethyl)-1H-indazol-3-yl)amino)-6-(cyclopropanecarboxamido)nicotinate] | 8.82 | –
COC(=O)c1cnc(NC(=O)[C@@H]2C[C@@H]2F)cc1Nc1nn(C)c2ccc(C(O)C(F)(F)F)c(OC)c12 (single isomer, unassigned) [Example 122B, Methyl 6-((1S,2S)-2-fluorocyclopropane-1-carboxamido)-4-((4-methoxy-1-methyl-5-((R*)-2,2,2-trifluoro-1-hydroxyethyl)-1H-indazol-3-yl)amino) nicotinate] | – | 9.13
COC(=O)c1cnc(NC(=O)C2CC2)cc1Nc1nn(C)c2ccc([C@H](OCOP(=O)(O)O)C(F)(F)F)c(OC)c12 [Example 170, Sodium (S)-(1-(3-((2-(cyclopropanecarboxamido)-5-(methoxycarbonyl)pyridin-4-yl)amino)-4-methoxy-1-methyl-1H-indazol-5-yl)-2,2,2-trifluoroethoxy)methyl phosphate] | 10.13 | –
COC(=O)c1cnc(NC(=O)C2CC2)cc1Nc1nn(C2CC2)c2ccc(C(OC)C(F)(F)F)c(OC)c12 (centres unmarked) [Example 119, Methyl 6-(cyclopropanecarboxamido)-4-((1-cyclopropyl-4-methoxy-5-(2,2,2-trifluoro-1-methoxyethyl)-1H-indazol-3-yl)amino)nicotinate] | 9.51 | –
COC(=O)c1cnc(NC(=O)C2CC2)cc1Nc1ccn2ncc(C(OC)C(F)(F)F)c2c1OC (centres unmarked) [Example 131, Methyl 6-(cyclopropanecarboxamido)-4-((4-methoxy-3-(2,2,2-trifluoro-1-methoxyethyl)pyrazolo[1,5-a]pyridin-5-yl)amino)nicotinate] | 7.90 | –
